# Experimental data reported in patent US4266034A, “Method for producing microbial cells and use thereof to produce oxidation products” (priority 1979, dated 1981).
# Like-named read-outs stand apart in the source and are kept apart here.
# Tests used:
# [1] = system: secondary alcohol dehydrogenase; assay: Purified yeast-derived secondary alcohol dehydrogenase activity; type: biochemical, Pichia sp. NRRL Y-11,328
# Description: Large scale cultures of Pichia sp. NRRL Y-11,328 were grown with aeration at 30° C. in a 14-liter New Brunswick f fermentor in a mineral salt medium containing methanol (0.4%, v/v) as the sole carbon source. The cells (200 g., wet weight) were suspended in […] sodium phosphate buffer, pH 7.0, containing 1 mM dithiothreitol (buffer A), and crude extracts were prepared as described previously. To the crude extracts, 18 ml. of protamine sulfate solution [2% solution in 0.1 M tris (hydroxymethyl) aminomethane (tris) base] was added dropwise with continuous stirring. After standing for 30 min., the extracts were centrifuged at 20,000×g. for 60 min. The supernatant solution was fractionated with solid ammonium sulfate. Extracts were brought to 50% of saturation with respect to ammonium sulfate by addition of 313 g. of the salt per liter of extract. Precipitated proteins was removed by centrifugation, and 137 g. of ammonium sulfate was added per liter of the supernatant liquid to bring it to 70% of saturation. Material precipitating between 50 and 70% of saturation was collected by centrifugation and dissolved in buffer A. This preparation was dialyzed overnight against buffer A, and the dialyzed material was applied to a DEAE-cellulose column (5×40 cm) that had been equilibrated with buffer A. The sample was washed with 200 ml. of buffer A and eluted with 2 liters of buffer A that contained NaCl in a linear gradient running from a concentration of 0 to 0.5 M. Fractions of 15 ml. were collected. Fractions containing secondary alcohol dehydrogenase activity were pooled and were termed DEAE-cellulose eluate. The DEAE-cellulose eluate was concentrated by ammonium sulfate fractionation.
# Secondary alcohol dehydrogenase activity was measured spectrophotometrically at 340 nm with a NAD^+ as an electron acceptor. The reaction mixture, in a total 3.0 ml., contained 50 mM phosphate buffer, pH 8.0, 5 μmoles NAD^+, crude extracts, and substrate. […] Protein concentration was determined by the method of Lowry et al.
# The substrate specificity of the purified secondary alcohol dehydrogenase was examined spectrophotometrically.
# [2] = system: P(40) particulate fraction of Methylosinus sp. (CRL-15, NRRL B-11,202); assay: Epoxidation of propylene and hydroxylation of methane by P(40) particulate fraction; type: biochemical; details: for Rate of Production Formation: substrate oxidized by P(40) fraction, 30° C.; for Methane-Oxidizing Activity / Propylene-Oxidizing Activity: metal 10^-3 M; for Methane-Oxidizing Activity: control 4.0; for Propylene-Oxidizing Activity: control […]; for Propylene Oxide Produced: substrate competition, P(40) fraction
# [3] = system: secondary alcohol dehydrogenase; assay: Cofactor requirement of cell-free soluble extracts oxidizing 2-butanol; type: biochemical; details: cell-free systems
# Description: Catalytic activity was also assayed by fluorescence spectrophotometry.
# [4] = system: secondary alcohol dehydrogenase (SADH); assay: Purified secondary alcohol dehydrogenase (SADH) activity; type: biochemical, Pseudomonas sp. ATCC 21439; details: each inhibitor 1 mM, measured spectrofluorometrically
# Description: Secondary alcohol dehydrogenase (SADH) from an obligate methanol utilizer, Pseudomonas sp. ATCC 21439 was purified as follows. […] 0.05 M sodium phosphate buffer, pH 7.0 with 0.5 mM dithiothretol (buffer A) and were disrupted sonically (5×1 min.). The crude extract was separated by centrifugation. The crude extract was heat-treated at 50° C. in a water bath for 10 minutes. The resulting precipitate was removed by centrifugation. To the supernatant solution, 25 ml of protamine sulfate solution (2% solution in 0.1 M Tris base) was added dropwise with continuous stirring. After standing for 30 minutes, the extract was centrifuged. The supernatant solution was fractionated with solid ammonium sulfate. The material precipitating between 30 and 60% saturation was collected and was dialized overnight against buffer A. The The dialized material was applied to a DEAE-cellulose column (3 cm by 35 cm) that had been equilibrated with buffer A. The secondary alcohol dehydrogenase activity was eluted in the void volume. This DEAE-cellulose eluate was concentrated by ammonium sulfate fractionation. Material precipitating between 30 and 50% ammonium sulfate saturation was collected by centrifugation and dialyzed overnight against A. This fraction was further washed and filtered through an Amicon unit with XM 50 membrane. The concentrated fraction (6 ml) inside the Amicon unit was applied to an Affi-Gel Blue column (0.8 cm×18 cm) which had been equilibrated with buffer A for affinity chromatography. The column was washed overnight with buffer A (0.18 ml./min.) and then was eluted with buffer A containing 5 mM NAD. Each 1 ml. fraction was collected.
# The purified secondary alcohol dehydrogenase enzyme (SADH) may be used directly for converting C3 -C6 secondary alcohols to the corresponding methyl ketones by the procedures described above; however, a source of NAD^+ must be added to the reaction medium. One can determine the NAD-linked secondary alcohol dehydrogenase activity with a fluorescence spectrophotometer (Perkin Elmer, Model MPF 44A) by following the formation of reduced NAD (Ex 340 nm, Em 460 nm). The assay system (3 ml.) will typically contain: sodium phosphate buffer pH 7.0, 150 μmol; NAD 1.0 μmol; a given amount of enzyme preparation; and 20 μmol secondary alcohol. The reaction is started by the addition of secondary alcohol. One unit of SADH enzyme activity represents the reduction of one nmole NAD per minute.
# The effect of metal-chelating agents and thioreagents on the activity of the purified SADH enzyme were studied. […] The possibility of ethanol or n-propanol as an inhibitor was studied.
# [5] = system: cell-free particulate fractions derived from the methylotrophic microorganisms; assay: Inhibition of conversion of C3-C6 n-alkanes to sec. alcohols by cell-free particulate fractions; type: biochemical; details: oxygen and NADH
# From the text: The conditions for preparing the cell suspensions or the cell-free particulate fractions from methane-grown methylotroph microorganisms is the same as described above. […] Tables XXV and XXVI show the conversion of C3 -C6 n-alkanes to the corresponding secondary alcohols using cell suspensions and cell-free particulate fractions, respectively, of methane-grown methylotroph microorganisms.
# [6] = system: methanol-grown Methylococcus capsulatus CRL M1 (NRRL B-11,219); assay: Production of 2-butanone from 2-butanol by cell suspensions, inhibition studies; type: cell-based; details: 1 mM
# [7] = examined spectrophotometrically
# [8] = purified enzyme, substrate 5.7 (isopropanol) or 6.0 (2-butanol) μmoles
compound,measurement,setting,value
"CC(O)CO (stereo not drawn) [1,2-propandiol]",oxidation by the purified enzyme (substrate specificity),[1]; [7],not oxidized
C=CCC [1-Butene],Rate of Production Formation,[2],2.18 μ moles/hr/mg of protein
C=CCCC [1-Pentene],Rate of Production Formation,[2],0 μ moles/hr/mg of protein
"O=C1C(Cl)=CC(=Nc2ccc(O)cc2)C=C1Cl [2,6-dichlorophenol indophenol]",ability to act as electron carrier in place of NAD^+,[1]; purified enzyme,could not act as electron carrier
same,effectiveness as cofactor in place of NAD,[3],not effective
CCCCCC(C)O (stereo not drawn) [2-Heptanol],oxidation by the purified enzyme (substrate specificity),[1]; [7],not oxidized
CCC(C)O (stereo not drawn) [2-butanol],oxidation by the purified enzyme (substrate specificity),[1],catalyzed the oxidation
CCCCC(C)O (stereo not drawn) [2-hexanol],oxidation by the purified enzyme (substrate specificity),[1]; [7],catalyzed the oxidation
CCCCCCC(C)O (stereo not drawn) [2-octanol],oxidation by the purified enzyme (substrate specificity),[1]; [7],not oxidized
CCCC(C)O (stereo not drawn) [2-pentanol],oxidation by the purified enzyme (substrate specificity),[1]; [7],catalyzed the oxidation
CC(C)O [2-propanol],oxidation by the purified enzyme (substrate specificity),[1]; [7],catalyzed the oxidation
same,NAD^+ Reduced,[1]; [8],5.4 µmol
same,Product Formed,[1]; [8],5.5 µmol
"O=C(O)c1cc(SSc2ccc([N+](=O)[O-])c(C(=O)O)c2)ccc1[N+](=O)[O-] [5,5'-dithiobis(2-nitrobenzoic acid)]",% inhibition of SADH activity,[4],100%
same,% inhibition of SADH activity,"[4]; listed as 5,5'-dithiobis (2-nitrobenzoic acid)",inhibited
Oc1cccc2cccnc12 [8-Hydroxyquinoline],inhibition of the conversion of n-alkanes to sec. alcohols,[5],inhibited
C=CC=C [Butadiene],Rate of Production Formation,[2],0.63 μ moles/hr/mg of protein
[Co+2] [Co^++],% inhibition of SADH activity,[4],0%
O=S(=O)([O-])[O-].[Cu+2] [Cupric Sulfate],Methane-Oxidizing Activity,[2],7.1 μmoles/hr/mg protein
same,Propylene-Oxidizing Activity,[2],9.0 μmoles/hr/mg protein
same,inhibition of secondary alcohol dehydrogenase activity,[1]; purified enzyme,inhibited
[Cl][Cu] [Cuprous Chloride],Methane-Oxidizing Activity,[2],7.2 μmoles/hr/mg protein
same,Propylene-Oxidizing Activity,[2],9.2 μmoles/hr/mg protein
CC [Ethane],Rate of Production Formation,[2],3.2 μ moles/hr/mg of protein
C=C [Ethylene],Rate of Production Formation,[2],1.27 μ moles/hr/mg of protein
[Cl][Fe]([Cl])[Cl] [Ferric Chloride],Methane-Oxidizing Activity,[2],4.8 μmoles/hr/mg protein
same,Propylene-Oxidizing Activity,[2],5.8 μmoles/hr/mg protein
c1c[nH]cn1 [Imidazole],inhibition of secondary alcohol dehydrogenase activity,[1]; purified enzyme,strongly inhibited
C [Methane],Propylene Oxide Produced,[2],0 μmoles/hr/mg. protein
same,Rate of Production Formation,[2],4.8 μ moles/hr/mg of protein
[Mg+2] [Mg^++],% inhibition of SADH activity,[4],0%
[Mn+2] [Mn^++],% inhibition of SADH activity,[4],0%
CCN1C(=O)C=CC1=O [N-ethylmalemide],% inhibition of SADH activity,[4],6%
same,% inhibition of SADH activity,[4]; listed as N-ethylmaleimide,not inhibited
NC(=O)C1=CN([C@@H]2O[C@H](COP(=O)(O)OP(=O)(O)OC[C@H]3O[C@@H](n4cnc5c(N)ncnc54)[C@H](OP(=O)(O)O)[C@@H]3O)[C@@H](O)[C@H]2O)C=CC1 [NAD(P)H],effectiveness as cofactor in place of NAD,[3],not effective
NC(=O)c1ccc[n+]([C@@H]2O[C@H](COP(=O)([O-])OP(=O)(O)OC[C@H]3O[C@@H](n4cnc5c(N)ncnc54)[C@H](OP(=O)(O)O)[C@@H]3O)[C@@H](O)[C@H]2O)c1 [NADP],ability to act as electron carrier in place of NAD^+,[1]; purified enzyme,could not act as electron carrier
same,effectiveness as cofactor in place of NAD,[3],not effective
C=CC [Propylene],Propylene Oxide Produced,[2],4.3 μmoles/hr/mg. protein
same,Rate of Production Formation,[2],4.1 μ moles/hr/mg of protein
same,inhibition of the conversion of n-alkanes to sec. alcohols,[5],inhibited
[N-]=[N+]=[N-] [Sodium azide],% inhibition of SADH activity,[4],10%
NNC(N)=S [Thiosemicarbazide],inhibition of the conversion of n-alkanes to sec. alcohols,[5],inhibited
NC(N)=S [Thiourea],Inhibition (%) of production of 2-butanone,[6],not inhibited
same,inhibition of the conversion of n-alkanes to sec. alcohols,[5],inhibited
[Zn+2] [Zn^++],% inhibition of SADH activity,[4],0%
CCCCO [butan-1-ol],oxidation by the purified enzyme (substrate specificity),[1],not oxidized
"CCC(O)CO (stereo not drawn) [butane 1,2-diol]",oxidation by the purified enzyme (substrate specificity),[1]; [7],not oxidized
"CC(O)CCO (stereo not drawn) [butane 1,3-diol]",oxidation by the purified enzyme (substrate specificity),[1]; [7],not oxidized
[Cu+2] [cupric],% inhibition of SADH activity,[4],25%
CCO [ethanol],oxidation by the purified enzyme (substrate specificity),[1],not oxidized
[Fe+3] [ferric],% inhibition of SADH activity,[4],35%
[Fe+2] [ferrous],% inhibition of SADH activity,[4],50%
Cc1cc2nc3c(=O)[nH]c(=O)nc-3n(C[C@H](O)[C@H](O)[C@H](O)COP(=O)(O)OP(=O)(O)OC[C@H]3O[C@@H](n4cnc5c(N)ncnc54)[C@H](O)[C@@H]3O)c2cc1C [flavin adenine dinucleotide],ability to act as electron carrier in place of NAD^+,[1]; purified enzyme,could not act as electron carrier
same,effectiveness as cofactor in place of NAD,[3],not effective
N[C@@H](CCC(=O)N[C@@H](CS)C(=O)NCC(=O)O)C(=O)O [glutathione],inhibition of secondary alcohol dehydrogenase activity,[1]; purified enzyme,strongly inhibited
same,effectiveness as cofactor in place of NAD,[3],not effective
N#C[S][Hg][S]C#N [mercuric thiocyanate],inhibition of secondary alcohol dehydrogenase activity,[1]; purified enzyme,inhibited
CO [methanol],oxidation by the purified enzyme (substrate specificity),[1]; [7],not oxidized
[Ni+2] [nickel],% inhibition of SADH activity,[4],20%
O=C(O)c1cc[c]([Hg+])cc1.[OH-] [p-hydroxymercuribenzoate],% inhibition of SADH activity,[4],100%
same,inhibition of secondary alcohol dehydrogenase activity,[1]; purified enzyme,strongly inhibited
CCCCCO [pentan-1-ol],oxidation by the purified enzyme (substrate specificity),[1]; [7],not oxidized
C[n+]1c2ccccc2nc2ccccc21 [phenazine methosulfate],ability to act as electron carrier in place of NAD^+,[1]; purified enzyme,could not act as electron carrier
same,effectiveness as cofactor in place of NAD,[3],not effective
CCCO [propan-1-ol],oxidation by the purified enzyme (substrate specificity),[1],not oxidized
O=[N+]([O-])[O-].[Ag+] [silver nitrate],inhibition of secondary alcohol dehydrogenase activity,[1]; purified enzyme,inhibited
"c1ccc(-c2ccccn2)nc1 [α,α-Bipyridyl]",Inhibition (%) of production of 2-butanone,[6],inhibited
same,% inhibition of SADH activity,[4],70%
same,inhibition of the conversion of n-alkanes to sec. alcohols,[5],inhibited
Ferrous Sulfate,Methane-Oxidizing Activity,[2],4.8 μmoles/hr/mg protein
same,Propylene-Oxidizing Activity,[2],5.9 μmoles/hr/mg protein
cytochrome c,ability to act as electron carrier in place of NAD^+,[1]; purified enzyme,could not act as electron carrier
